This is an account of results in ChEMBL document CHEMBL1201862, “PubChem BioAssay data set” (2004).

Among the test systems are OVCAR-8; SK-MEL-28; SR; U-251; MDA-MB-231; CCRF-CEM; SNB-75; HCT-15; HCC 2998; TK-10; 786-0; NCI/ADR-RES; NCI-H460; OVCAR-5; CAKI-1; NCI-H522; OVCAR-3; NCI-H226; Hs-578T.
Common to all, as to assay: inhibition of tumour cell growth, NCI panel, 48 h

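Five concentrations, 48 hours, 96-well plates. Here, GI50 denotes the concentration required for 50% inhibition of growth.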 Activity calls are given as the source filed them. Rule as the data show it: active = GI50 up to about 1.1 µM and inactive = higher. Some results are limits rather than exact numbers.

As to `COc1ccc(CC2C(=O)NC(C)C(=O)N(C)C3Cc4ccc(cc4)Oc4cc(ccc4O)CC(C(=O)NC(C)C(=O)NC(C)C(=O)N2C)N(C)C3=O)cc1` (configuration not stated), the GI50 in the assay on OVCAR-8 was 0.0191 µM (active); in the assay with SK-MEL-28 it was 0.0175 µM (active); with SR, < 0.0001 µM (active); with U-251, 0.0175 µM (active); with MDA-MB-231, < 0.0001 µM (active); with CCRF-CEM it was 0.0175 µM (active). The GI50 in the assay on SNB-75 was 0.0175 µM (active); in the assay on HCT-15, 0.851 µM; in the assay on HCC 2998, 0.0175 µM (active); with TK-10, 0.0257 µM (active); in the assay on 786-0, < 0.0001 µM (active); with NCI/ADR-RES, 2.44 µM (inactive). In addition, the GI50 with NCI-H460 was 0.0175 µM (active).
Consider `Cc1[nH]c2ccccc2c1C1Cc2ccccc2N1C(=O)/C(Cl)=C/c1ccccc1` (configuration not stated), for which the GI50 in the assay with OVCAR-5 is > 100 µM (inactive); with CAKI-1, 50.6 µM (inactive); in the assay with NCI-H522, > 100 µM (inactive); in the assay with OVCAR-8, > 100 µM (inactive); in the assay with SK-MEL-28 it was > 100 µM (inactive); in the assay on SR, 29.2 µM (inactive). Besides, the GI50 with U-251 was > 100 µM (inactive); in the assay with OVCAR-3, > 100 µM (inactive); in the assay on CCRF-CEM, > 73.1 µM (inactive); in the assay on SNB-75, 4.65 µM (inactive); in the assay on HCT-15, over 100 µM; in the assay on NCI-H226, > 69 µM (inactive). Further, the GI50 with HCC 2998 was > 100 µM (inactive); with TK-10 it was > 73.3 µM (inactive); in the assay with 786-0, > 100 µM (inactive); with NCI-H460 it was > 100 µM (inactive).
As for `CCOC(=O)/C=C1\CCCC12OCCO2`, the GI50 is > 100 µM (inactive) with CAKI-1; 2.87 µM (inactive) in the assay on NCI-H522; 89.5 µM (inactive) with OVCAR-8; > 100 µM (inactive) with SK-MEL-28; 25.8 µM (inactive) in the assay on SR; > 100 µM (inactive) with U-251. Further, the GI50 in the assay with OVCAR-3 was 28 µM (inactive); in the assay on CCRF-CEM it was > 100 µM (inactive); in the assay on SNB-75, 77.3 µM (inactive); in the assay with HCT-15, over 100 µM; in the assay on NCI-H226, > 100 µM (inactive); in the assay on HCC 2998, > 100 µM (inactive). Moreover, the GI50 in the assay on TK-10, with 786-0 and in the assay with NCI-H460 was > 100 µM (inactive) each time.
For `COc1cc(/C=C2/C(=O)N(C(=O)OCC(C)C)C(Cc3cc(OC)c(OC)c(C)c3OC)C(=O)N2Cc2ccccc2)c(OC)c(C)c1OC` (configuration not stated), the GI50 was > 100 µM (inactive) in the assay on OVCAR-5; > 100 µM (inactive) in the assay with CAKI-1; 5.26 µM (inactive) with NCI-H522; > 100 µM (inactive) in the assay on OVCAR-8; > 100 µM (inactive) in the assay on SK-MEL-28; 25.1 µM (inactive) in the assay on SR. Also, the GI50 with U-251 is > 100 µM (inactive); in the assay on OVCAR-3, 79.4 µM (inactive); in the assay on CCRF-CEM, 21.3 µM (inactive); in the assay with SNB-75, > 100 µM (inactive); in the assay on NCI-H226, 2.56 µM (inactive); with HCC 2998, > 100 µM (inactive). Further, the GI50 in the assay with TK-10 was > 100 µM (inactive); with 786-0, > 100 µM (inactive); in the assay with NCI-H460, 30.5 µM (inactive).
Consider `COC(=O)CCc1c(Cc2ccc[nH]2)[nH]c(C(=O)OCc2ccccc2)c1C`, for which the GI50 is 35.9 µM (inactive) with OVCAR-5; 25.1 µM (inactive) in the assay with CAKI-1; 27.3 µM (inactive) in the assay with NCI-H522; 24.8 µM (inactive) in the assay on OVCAR-8; 20.1 µM (inactive) in the assay on SK-MEL-28; 22.6 µM (inactive) with Hs-578T. Also, the GI50 was 30.8 µM (inactive) with SR; 22.3 µM (inactive) in the assay with U-251; 15.3 µM (inactive) with MDA-MB-231; 15.8 µM (inactive) in the assay on OVCAR-3; 60.7 µM (inactive) with CCRF-CEM; 16.1 µM in the assay with HCT-15. In addition, the GI50 with NCI-H226 is 17.1 µM (inactive); in the assay on TK-10 it was 26 µM (inactive); with 786-0, 16.3 µM (inactive); in the assay with NCI/ADR-RES, 20.6 µM (inactive); in the assay on NCI-H460 it was > 100 µM (inactive).
Regarding `CC(CO)CCNc1ncnc2c1ncn2CCC#N` (configuration not stated), the GI50 in the assay with OVCAR-5, with CAKI-1, in the assay with NCI-H522, in the assay on OVCAR-8, in the assay on SK-MEL-28 and in the assay on Hs-578T was > 100 µM (inactive) each time. The GI50 in the assay on SR, with MDA-MB-231, in the assay with OVCAR-3, with CCRF-CEM, in the assay on SNB-75 and in the assay with NCI-H226 was > 100 µM (inactive) throughout. For the same compound, the GI50 in the assay on HCC 2998, in the assay with TK-10, in the assay on 786-0, in the assay with NCI/ADR-RES and in the assay on NCI-H460 was > 100 µM (inactive) throughout.
As to `O=C(CC(=O)c1cccc2ccccc12)C(=O)Nc1nccs1`, the GI50 in the assay with OVCAR-5, in the assay on CAKI-1, in the assay with NCI-H522, with OVCAR-8, in the assay with SK-MEL-28 and in the assay on SR was > 100 µM (inactive) each time. Besides, the GI50 with U-251 was > 100 µM (inactive); in the assay on OVCAR-3 it was > 100 µM (inactive); in the assay on CCRF-CEM, > 100 µM (inactive); with SNB-75, 66.2 µM (inactive); in the assay with HCT-15 it was over 100 µM; in the assay with NCI-H226 it was > 100 µM (inactive). For the same compound, the GI50 in the assay on HCC 2998, with TK-10, with 786-0 and in the assay with NCI-H460 was > 100 µM (inactive) each time.
For the compound `CN(C)CC1(C)CC/C(=C\c2ccc3c(c2)OCO3)C1=O` (configuration not stated), the GI50 with OVCAR-5 was > 100 µM (inactive); in the assay on CAKI-1, 6.58 µM (inactive); with NCI-H522, 39.5 µM (inactive); in the assay on OVCAR-8, > 100 µM (inactive); with SK-MEL-28, > 100 µM (inactive); in the assay on SR, 45.9 µM (inactive). The GI50 is > 100 µM (inactive) in the assay on U-251; > 100 µM (inactive) in the assay with OVCAR-3; 59.4 µM (inactive) with CCRF-CEM; > 100 µM (inactive) with SNB-75; over 100 µM with HCT-15; > 100 µM (inactive) with NCI-H226. The GI50 with HCC 2998, with TK-10, in the assay with 786-0 and in the assay with NCI-H460 was > 100 µM (inactive) in each case.
As to `Cc1ccc(/N=N/c2c(C)nn(-c3ccccc3)c2-c2ccccc2)c(Br)c1`, the GI50 is > 100 µM (inactive) in the assay on CAKI-1; 97.1 µM (inactive) in the assay on NCI-H522; > 100 µM (inactive) in the assay with OVCAR-8; > 100 µM (inactive) in the assay with SK-MEL-28; 6.21 µM (inactive) with SR; > 100 µM (inactive) with OVCAR-3. In addition, the GI50 is 21 µM (inactive) in the assay on CCRF-CEM; > 100 µM (inactive) with SNB-75; 28.2 µM with HCT-15; > 100 µM (inactive) with NCI-H226; 61.8 µM (inactive) in the assay on HCC 2998; > 100 µM (inactive) with TK-10. The GI50 is 32.6 µM (inactive) in the assay on 786-0 and 31.8 µM (inactive) in the assay with NCI-H460.
On to `CC1C=CC(C)C2(O)C(=O)NC(O)C12` (configuration not stated), for which the GI50 in the assay on CAKI-1, in the assay on NCI-H522, in the assay with OVCAR-8, with SK-MEL-28, with SR and in the assay on U-251 was > 100 µM (inactive) throughout. The GI50 in the assay on CCRF-CEM is > 100 µM (inactive); with SNB-75, > 100 µM (inactive); with HCT-15, over 100 µM; in the assay with NCI-H226 it was > 100 µM (inactive); in the assay with HCC 2998 it was > 100 µM (inactive); with TK-10, > 100 µM (inactive). The GI50 in the assay with 786-0 and in the assay with NCI-H460 was > 100 µM (inactive) each time.
On to `CC(=O)O[C@H]1C(=O)[C@@]2(C)[C@H]([C@H](OC(=O)c3ccccc3)[C@]3(O)C[C@H](OC(=O)[C@H](O)[C@@H](NC(=O)c4ccco4)c4ccccc4)C(C)=C1C3(C)C)[C@]1(OC(C)=O)CO[C@@H]1C[C@@H]2O`, for which the GI50 with OVCAR-5 was < 0.00125 µM (active); in the assay on CAKI-1, 0.278 µM (active); in the assay with NCI-H522, < 0.00125 µM (active); with OVCAR-8, < 0.00125 µM (active); in the assay on SK-MEL-28, > 12.5 µM (inactive); in the assay on Hs-578T, < 0.00125 µM (active). Also, the GI50 with SR was < 0.00125 µM (active); in the assay on U-251 it was < 0.00125 µM (active); in the assay on MDA-MB-231, 0.013 µM (active); in the assay with OVCAR-3, < 0.00125 µM (active); with CCRF-CEM, < 0.00125 µM (active); in the assay on SNB-75, < 0.00125 µM (active). In addition, the GI50 is 0.249 µM with HCT-15; 0.00126 µM (active) in the assay on NCI-H226; < 0.00125 µM (active) with HCC 2998; 0.022 µM (active) with TK-10; 0.00421 µM (active) in the assay with 786-0; 2.64 µM (inactive) with NCI/ADR-RES. In the assay with NCI-H460, the GI50 is < 0.00125 µM (active).
For `NC(N)=NN/C(=C1/N=c2ccc([N+](=O)[O-])cc2=NC1=O)C(O)c1ccco1` (configuration not stated), the GI50 was > 100 µM (inactive) in the assay with OVCAR-5; > 100 µM (inactive) in the assay on CAKI-1; 32.8 µM (inactive) in the assay with NCI-H522; > 100 µM (inactive) with OVCAR-8; > 100 µM (inactive) in the assay with SK-MEL-28; > 100 µM (inactive) in the assay on SR. Besides, the GI50 in the assay on U-251 is > 100 µM (inactive); in the assay on CCRF-CEM, 67.1 µM (inactive); with SNB-75, > 100 µM (inactive); in the assay on HCT-15, over 100 µM; with NCI-H226, > 100 µM (inactive); with HCC 2998, > 100 µM (inactive). For the same compound, the GI50 in the assay with TK-10, with 786-0 and in the assay on NCI-H460 was > 100 µM (inactive) throughout.
